Laboratory results taken from patent publication US8501400B2, “Methods and compositions for determining the pathogenic status of infectious agents” (priority 2007, dated 2013).

Key:
[1] = tested on: H37Rv cells; experiment: Sp6 SML-phage drug susceptibility test: SML generation (RT-PCR) in drug-treated Mtb; type: cell-based; conditions: 0.2 μg/ml INH, 2 μg/ml STR or 7.5 μg/ml EMB, Sp6 SML-phage MOI of 1 for 4 hr
[2] = tested on: H37Rv cells; experiment: Effect of mucolytic agents on phage infection and SML generation; type: cell-based, Mtb; conditions: equal volume of 0.5% NALC/2.9% NaCitrate or 200 mM TCEP/2.9% NaCitrate, one hour at 37° C., then SML-phage 4 hr; HiSalt conditions not given
[3] = 16 hr treatment at 37° C. with 2 μg/ml RIF
[4] = 40 hr treatment at 37° C. with 2 μg/ml RIF

Structure (SMILES) | SML generation after drug treatment [1, 3] | SML generation after drug treatment [1, 4] | Effect on phage infection and SML generation [2]
[H]/N=C(/N)N[C@H]1[C@H](O)[C@@H](O)[C@H](O[C@@H]2O[C@@H](C)[C@](O)(C=O)[C@H]2O[C@@H]2O[C@@H](CO)[C@H](O)[C@@H](O)[C@@H]2NC)[C@@H](N/C(N)=N\[H])[C@@H]1O [STR, Streptomycin] | no detectable SML | no detectable SML | 
NNC(=O)c1ccncc1 [INH, isoniazid] | some detectable SML synthesis | completely abolished | 
CC(=O)N[C@@H](CS)C(=O)O [NALC, N-acetyl-L-cysteine] |  |  | no effect
CC[C@@H](CO)NCCN[C@@H](CC)CO [EMB, Ethambutol] | some detectable SML synthesis | completely abolished | 
O=C(O)CCP(CCC(=O)O)CCC(=O)O [TCEP, Tris-Carboxyethylphosphine] |  |  | completely abolishes SML generation
